The subject of one test is platelets. In words: platelet aggregation (aggregometer). In kind it is cell-based, human. To be noted: in words. Here is the method: Platelet aggregation profiling is a standard methodology, generally performed with an instrument adapted for that express purpose, for example, a Platelet Aggregation Profiler (BioData, Horsham, Pa.). The assays can generally be performed according to the instructions of the manufacturer. As exemplary conditions, 400 μl of PRP are incubated with inhibitor for 15 minutes at room temperature. The sample is then incubated for 3 minutes at 37° C. in the Platelet Aggregation Profiler. The instrument is calibrated with platelet poor plasma serving as a blank. A baseline tracing is established by monitoring the light transmittance of PRP being stirred at 1200 rpm. Aggregation is initiated by the addition of SFLLR (200 μM) and the percent of platelet aggregation is measured by the change in light transmittance for 6 minutes following addition of SFLLR.

In test [1] the test system is laser-induced thrombi in cremaster arterioles. In kind it is in vivo. The text has this: A preferred animal model involves intravital microscopy of laser-induced thrombi. The method is described by Rosen et al., 2001, Am J Pathol 158, 1613–1622, which is incorporated herein by reference. Minor variations of that method were employed as described below.
Experimental mice are pre-anesthetized and surgically prepared. A tracheal tube is placed to facilitate breathing and the jugular vein is canulated to allow for maintenance of anesthetic and introduction of compound. The cremaster muscle is then exteriorized. The muscle is affixed over a glass slide, allowing illumination from below. A steady drip of a sodium-bicarbonate buffered salt solution is maintained throughout the experiment to keep the exposed muscle moist. Blood flow in the muscle is visualized using a 40× water immersion lens and epi-illuminated with an appropriately filtered light source. Alexa 488-labeled anti-mouse CD41 antibody is injected through the jugular canulus to label platelets in vivo.
Thrombosis is initiated by damaging the vessel wall (of a 30 μm vessel) with a laser pulse from a MicroPoint LASER attached to the microscope. A LASER pulse is delivered, causing damage in an area smaller than 1 μm. The recruitment of platelets to the thrombus is then monitored by the accumulation of (activated) Alexa 488-labeled platelets at the ablation site using fluorescence microscopy, and the process is recorded digitally. The method thus permits in vivo analysis of platelet activation as measured by platelet aggregation and thrombosis.
The degree of embolization in an untreated mouse can be quantified using software for image analysis, e.g., BioQuant True Color Windows (Biometrics, Nashville, Tenn.), as described in Rosen et al., 2001, supra. The software package permits the determination of the “integrated optical density” or IOD of the thrombus.
Using quantitative intravital fluorescence videomicroscopy with high temporal resolution (111 images/second), the effect of PDE3 inhibition on the platelet recruitment into thrombi was directly observed over time. Platelets were fluorescently labeled by infusing rat-anti-mouse CD41 and Alexa 488-anti-rat IgG through a cannulated jugular vein. The cremaster microvasculature was exposed and mapped and suitable arteriole segments were selected for laser-induced injury. A series of control injuries were generated prior to infusion of the inhibitory compound. The power and the number of laser pulses required to generate each thrombus was recorded. Platelet accumulation to the thrombi following laser ablation was recorded using digital videomicroscopy. The thrombus total fluorescence in each frame of the videos was analyzed using Slidebook software for digital videomicroscopy. The pyridazinone compound was then infused. Following a 15 minute incubation, a series of experimental injuries were generated 250 μm proximal, with relationship to blood flow, of the first injury and the resultant thrombi were recorded. The power and the number of pulses required to induce the control thrombus was used to induce the experimental thrombus. The control and experimental thrombi constituting a pair were compared for statistical analysis. The total fluorescence intensity of the thrombi before and after the infusion of pyridazinone compound was recorded.
Images from a representative experiment of the recruitment of fluorescently-labeled […] platelets into a growing thrombus over time is shown in FIG. 9A.

Test [2] concerns PGE1-induced cAMP levels in platelets. The test is described as follows: augmentation of PGE1-induced cAMP levels in platelets. In kind it is cell-based, human. To be noted: in words. Here is the method: (A) Compound was tested for its ability to inhibit SFLLR-, U46619-, ADP-, PMA-, and collagen I-induced platelet α-granule secretion. (B) The effect of the compound on PGE1-stimulated cAMP elevation was analyzed. Platelets were incubated with increasing doses of pyridazinone compound for 30 minutes prior to the 2 minute incubation with PGE1. Platelets were subsequently lysed and cAMP level was assayed using a commercially available ELISA kit (Liao et al., 1998, Eur J Pharmacol 349, 107–14). […] Error bars represent mean ±1 SD (n=4), *P<0.001.
One frequent target of anti-platelet agents is phosphodiesterase III (PDE III). […] The assay is performed as described by Liao et al., 1998, Eur J Pharmacol 349,107–114, incorporated herein by reference. Briefly, aliquots of PRP are exposed to increasing concentrations of the agent for 20 minutes. The PRP is then challenged with 1 μM PGE1 for 2 min The reaction is stopped by adding 10 mM EDTA, followed immediately by boiling for 2 min. The mixture is cooled to 4° C. and the precipitated protein is pelleted. cAMP content in the supernatant is quantitated using an enzyme immunoassay kit (Pharmacia-Amersham, NJ) according to the instructions of the manufacturer.
In order to assess whether the compounds useful according to the invention might act through inhibition phosphodiesterase III, each was tested for its effect on PGE1-induced cAMP increase. Determination of platelet cAMP levels was performed as described by Liao et al., 1998, supra. Aliquots of PRP were exposed to increasing concentrations of the indicated compounds for 20 min. PRP was then challenged with 1 μM PGE1 for 2 min. The reaction was stopped with the addition of 10 mM EDTA followed immediately by boiling for 2 min. The mixture was then cooled to 4° C. and the precipitated protein was pelleted. Cyclic AMP content in the supernatant was then quantified using an enzyme immunoassay kit (Pharmacia-Amersham, NJ) according to the instructions of the manufacturer.
For orientation: Changes in cAMP serve as a functional read-out for many G protein-coupled receptors.

Take `CC1CC(=O)NN=C1c1ccc(N)c([N+](=O)[O-])c1` (stereo not drawn) [6-(4-Amino-3-nitro-phenyl)-5-methyl-4,5-dihydro-2H-pyridazin-3-one]: the “inhibition of SFLLR-induced platelet aggregation” value in the test on platelets is “potent inhibitor”. The stabilized platelet accumulation entry in test [1] (0.6 mg/kg (P<0.05) and 1.2 mg/kg (P<0.01), in words) was “dose-dependent inhibition”. The “maximum platelet accumulation compared to absence of compound” value in test [1] (0.6 and 1.2 mg/kg, P<0.05, in words) is given as “statistically significant decrease”. Moreover, the “time to achieve the maximum rate of platelet recruitment” value in test [1] (after laser injury, not affected by PDE3 inhibition, 0.3 and 1.2 mg/kg) is recorded as “approximately 27 seconds”. Further, the “effect on PGE1-stimulated cAMP levels in platelets” value was “augments PGE1-induced cAMP levels in a dose-dependent manner” in test [2] and “augment PGE1-induced cAMP level increase in platelets in a dose-dependent manner” in test [2] (listed as Pyridazinone compound).

The record behind these values is US7166612B2, “Methods for reducing platelet activation platelet aggregaton or thrombosis” (Beth Israel Deaconess Medical Center, priority 2001, dated 2007).
